Experimental data taken from patent US6485743B1, “Method and composition of an oral preparation of itraconazole” (Choongwae Pharma Corporation, priority 1997, dated 2002).

Assays:
[1] = cited from earlier work
[2] = pH 8.1 aqueous buffer/n-octanol system; cited from earlier work
[3] = Comparative test of solubility of the solid dispersions in polymer; type: physicochemical; conditions: simulated gastric fluid, thermodynamic from solid, simulated gastric juice (pH 1.2), 25° C., itraconazole:hydrophilic polymer=1:1.5 (w/w), n=3, Average ± Standard deviation

- solubility at 24 h [3]: 1.38 ± 0.11 µg/mL
SMILES: CCC(C)n1ncn(-c2ccc(N3CCN(c4ccc(OCC5COC(Cn6cncn6)(c6ccc(Cl)cc6Cl)O5)cc4)CC3)cc2)c1=O (mixture of isomers) [itraconazole, (±)-cis-4-[4-[4-[4-[[2-(2,4-dichlorophenyl)-2-(1H-1,2,4-triazol-1-ylmethyl)-1,3-dioxolan-4-yll]methoxy]phenyl]-1-piperazinyl]phenyl]-2,4-dihydro-2-(1-methylpropyl)-3H-1,2,4-triazol-3-one]
- solubility in diluted acidic solution ([1]; diluted acidic solution): less than 5 μg/ml
- solubility in water ([1]; water): less than 1 μg/ml
- oil/water partition coefficient [2]: 5.66
